We go through 8 molecules from US10004701B2, “Methods and compositions for treating infection” (UNIVERSITY OF ROCHESTER, priority 2012, dated 2018).

Holding throughout (assay): AK assay 384-well format, Prestwick library screening
In one assay the test system is K. pneumoniae. It counts as cell-based, Klebsiella pneumoniae. Conditions: 50 μM final drug concentration; for fold induction at 50 µM: Klebsiella pneumoniae, 3 h.
Another assay deals with E. coli. It counts as cell-based, Escherichia coli. Conditions: 50 μM final drug concentration; for fold induction at 50 µM: Escherichia coli, 3 h.
The subject of assay [1] is A. baumannii strain 98-37-09. Format: cell-based, Acinetobacter baumannii. Conditions: 50 μM final drug concentration; for fold induction at 50 µM: Acinetobacter baumannii, 983709, 3 h.
In a further assay the test system is E. faecium. Format: cell-based, Enterococcus faecium. Conditions: 50 μM final drug concentration; for fold induction at 50 µM: Enterococcus faecium, 3 h.
The subject of assay [2] is S. aureus strain USA300-0114. Format: cell-based, Staphylococcus aureus. Conditions: 50 μM final drug concentration; for fold induction at 50 µM: Staphylococcus aureus, USA300, 3 h.
For the next assay, the system named is P. aeruginosa. It counts as cell-based, Pseudomonas aeruginosa. Conditions: 50 μM final drug concentration; for fold induction at 50 µM: Pseudomonas aeruginosa, 3 h.
In another assay the test system is E. cloacae. It counts as cell-based, Enterobacter cloacae. Conditions: 50 μM final drug concentration; for fold induction at 50 µM: Enterobacter cloacae, 3 h.
The mark [3] stands for this setting: planktonic, cutoff for positive 3-fold increase.
[4] abbreviates: 384-well format, cutoff for positive-scoring molecules 3-fold increase, read-out: AK-based Prestwick Library Screening Results, K. pneumoniae (increase in extracellular AK activity).
Where [5] appears, read: 384-well format, cutoff for positive-scoring molecules 3-fold increase, read-out: AK-based Prestwick Library Screening Results, E. coli (increase in extracellular AK activity).
Setting [6] is: 384-well format, cutoff for positive-scoring molecules 3-fold increase, read-out: AK-based Prestwick Library Screening Results, A. baumannii (increase in extracellular AK activity).
Setting [7] is: 384-well format, cutoff for positive-scoring molecules 3-fold increase, read-out: AK-based Prestwick Library Screening Results, E. faecium (increase in extracellular AK activity).
Where [8] appears, read: 384-well format, cutoff for positive-scoring molecules 3-fold increase, read-out: AK-based Prestwick Library Screening Results, S. aureus (increase in extracellular AK activity).
The mark [9] stands for this setting: 384-well format, cutoff for positive-scoring molecules 3-fold increase, read-out: AK-based Prestwick Library Screening Results, P. aeruginosa (increase in extracellular AK activity).
Where [10] appears, read: 384-well format, cutoff for positive-scoring molecules 3-fold increase, read-out: AK-based Prestwick Library Screening Results, E. cloacae (increase in extracellular AK activity).

Counter-ions that a name gives are not always drawn. Like-named read-outs stand apart in the source and are kept apart here.

For Eburnamonine (−), the “AK-based Prestwick Library Screening Results, K. pneumoniae (fold increase in extracellular AK activity)” value in the assay with K. pneumoniae (setting [3]) is 1.0. Besides, in the assay on E. coli (setting [3]), the “AK-based Prestwick Library Screening Results, E. coli (fold increase in extracellular AK activity)” value came out at 1.2. For the same molecule, in assay [1] (setting [3]), the “AK-based Prestwick Library Screening Results, A. baumannii (fold increase in extracellular AK activity)” value amounted to 1.1. In the assay with E. faecium (setting [3]), the “AK-based Prestwick Library Screening Results, E. faecium (fold increase in extracellular AK activity)” value amounted to 1.1. In addition, in assay [2] (setting [3]), the “AK-based Prestwick Library Screening Results, S. aureus (fold increase in extracellular AK activity)” value was determined as 1.0. In addition, the “AK-based Prestwick Library Screening Results, P. aeruginosa (fold increase in extracellular AK activity)” value with P. aeruginosa (setting [3]) turned out to be 1.3. Besides, the “AK-based Prestwick Library Screening Results, E. cloacae (fold increase in extracellular AK activity)” value in the assay on E. cloacae (setting [3]) worked out at 1.4.

On to `CC(=O)CCCCn1c(=O)c2c(ncn2C)n(C)c1=O` [Pentoxifylline], for which the fold induction at 50 µM with K. pneumoniae (setting [4]) came out at 0.7; in the assay on E. coli (setting [5]), 0.8; in assay [1] (setting [6]), 0.9; in the assay on E. faecium (setting [7]) it was 0.9; in assay [2] (setting [8]) it was 0.8; in the assay with P. aeruginosa (setting [9]), 0.8. The fold induction at 50 µM in the assay on E. cloacae (setting [10]) came to 1.1.

`COc1ccc(Cc2nccc3cc(OC)c(OC)cc23)cc1OC` [Papaverine hydrochloride]: the fold induction at 50 µM in the assay on K. pneumoniae (planktonic K. pneumoniae, cutoff for positive-scoring molecules 3-fold increase, read-out: AK-based Prestwick Library Screening Results, K. pneumoniae (increase in extracellular AK activity)) was 0.8; with E. coli (planktonic E. coli, cutoff for positive-scoring molecules 3-fold increase, read-out: AK-based Prestwick Library Screening Results, E. coli (increase in extracellular AK activity)) it was 0.9; in assay [1] (planktonic A. baumannii, cutoff for positive-scoring molecules 3-fold increase, read-out: AK-based Prestwick Library Screening Results, A. baumannii (increase in extracellular AK activity)), 0.8; in the assay with E. faecium (planktonic E. faecium, cutoff for positive-scoring molecules 3-fold increase, read-out: AK-based Prestwick Library Screening Results, E. faecium (increase in extracellular AK activity)), 1; in assay [2] (planktonic S. aureus, cutoff for positive-scoring molecules 3-fold increase, read-out: AK-based Prestwick Library Screening Results, S. aureus (increase in extracellular AK activity)) it was 0.6; in the assay with P. aeruginosa (planktonic P. aeruginosa, cutoff for positive-scoring molecules 3-fold increase, read-out: AK-based Prestwick Library Screening Results, P. aeruginosa (increase in extracellular AK activity)) it was 1. In addition, the fold induction at 50 µM in the assay with E. cloacae (planktonic E. cloacae, cutoff for positive-scoring molecules 3-fold increase, read-out: AK-based Prestwick Library Screening Results, E. cloacae (increase in extracellular AK activity)) was determined as 0.9.

For the molecule `CCCCc1ccc2[nH]c(NC(=O)OC)nc2c1` [Parbendazole], the fold induction at 50 µM is 0.7 with K. pneumoniae (planktonic K. pneumoniae, […], read-out: AK-based Prestwick library screening result, K. pneumoniae (fold increase in extracellular AK activity)); 0.7 in the assay on E. coli (planktonic E. coli, […], read-out: AK-based Prestwick library screening result, E. coli (fold increase in extracellular AK activity)); 0.8 in assay [1] (planktonic A. baumannii, […], read-out: AK-based Prestwick library screening result, A. baumannii (fold increase in extracellular AK activity)); 0.6 in the assay on E. faecium (planktonic E. faecium, […], read-out: AK-based Prestwick library screening result, E. faecium (fold increase in extracellular AK activity)); 0.7 in assay [2] (planktonic S. aureus, […], read-out: AK-based Prestwick library screening result, S. aureus (fold increase in extracellular AK activity)); 0.7 in the assay with P. aeruginosa (planktonic P. aeruginosa, […], read-out: AK-based Prestwick library screening result, P. aeruginosa (fold increase in extracellular AK activity)). In the assay on E. cloacae (planktonic E. cloacae, […], read-out: AK-based Prestwick library screening result, E. cloacae (fold increase in extracellular AK activity)), the fold induction at 50 µM amounted to 1.2.

`Cc1cccc(CN2CCN(C(c3ccccc3)c3ccc(Cl)cc3)CC2)c1` (centres unmarked) [Meclozine dihydrochloride]: the fold induction at 50 µM is 0.9 with K. pneumoniae (planktonic, cutoff for positive 3-fold increase, read-out: AK-based Prestwick Library Screening Results, K. pneumoniae (fold increase in extracellular AK activity)); 1.2 in the assay on E. coli (planktonic, cutoff for positive 3-fold increase, read-out: AK-based Prestwick Library Screening Results, E. coli (fold increase in extracellular AK activity)); 1.9 in assay [1] (planktonic, cutoff for positive 3-fold increase, read-out: AK-based Prestwick Library Screening Results, A. baumannii (fold increase in extracellular AK activity)); 1.2 with E. faecium (planktonic, cutoff for positive 3-fold increase, read-out: AK-based Prestwick Library Screening Results, E. faecium (fold increase in extracellular AK activity)); 2.1 in assay [2] (planktonic, cutoff for positive 3-fold increase, read-out: AK-based Prestwick Library Screening Results, S. aureus (fold increase in extracellular AK activity)); 1.2 with P. aeruginosa (planktonic, cutoff for positive 3-fold increase, read-out: AK-based Prestwick Library Screening Results, P. aeruginosa (fold increase in extracellular AK activity)). Further, in the assay with E. cloacae (planktonic, cutoff for positive 3-fold increase, read-out: AK-based Prestwick Library Screening Results, E. cloacae (fold increase in extracellular AK activity)), the fold induction at 50 µM was determined as 1.4.

`Cn1nnnc1SCC1=C(C(=O)O)N2C(=O)[C@@H](NC(=O)[C@H](O)c3ccccc3)[C@H]2SC1` [Cefamandole sodium salt]: the fold induction at 50 µM stood at 2.3 in the assay on K. pneumoniae (planktonic, cutoff for positive-scoring molecules 3-fold increase, read-out: AK-based Prestwick Library Screening Results, K. pneumoniae (fold increase in extracellular AK activity)); 10.5 in the assay with E. coli (planktonic, cutoff for positive-scoring molecules 3-fold increase, read-out: AK-based Prestwick Library Screening Results, E. coli (fold increase in extracellular AK activity)); 0.6 in assay [1] (planktonic, cutoff for positive-scoring molecules 3-fold increase, read-out: AK-based Prestwick Library Screening Results, A. baumannii (fold increase in extracellular AK activity)); 0.9 in the assay with E. faecium (planktonic, cutoff for positive-scoring molecules 3-fold increase, read-out: AK-based Prestwick Library Screening Results, E. faecium (fold increase in extracellular AK activity)); 1.3 in assay [2] (planktonic, cutoff for positive-scoring molecules 3-fold increase, read-out: AK-based Prestwick Library Screening Results, S. aureus (fold increase in extracellular AK activity)); 0.7 in the assay on P. aeruginosa (planktonic, cutoff for positive-scoring molecules 3-fold increase, read-out: AK-based Prestwick Library Screening Results, P. aeruginosa (fold increase in extracellular AK activity)). The fold induction at 50 µM in the assay on E. cloacae (planktonic, cutoff for positive-scoring molecules 3-fold increase, read-out: AK-based Prestwick Library Screening Results, E. cloacae (fold increase in extracellular AK activity)) was found to be 0.9.

Regarding `[H]/N=C(/N)N/C(=N/[H])NCCc1ccccc1` [Phenformin hydrochloride], the fold induction at 50 µM is 0.6 in the assay on K. pneumoniae (setting [4]); 0.8 with E. coli (setting [5]); 0.8 in assay [1] (setting [6]); 1 with E. faecium (setting [7]); 0.7 in assay [2] (setting [8]); 0.7 in the assay with P. aeruginosa (setting [9]). Moreover, in the assay on E. cloacae (setting [10]), the fold induction at 50 µM turned out to be 0.8.

For the molecule `COc1ccc([C@@H]2CC(=O)c3c(O)cc(O[C@@H]4O[C@H](CO[C@@H]5O[C@@H](C)[C@H](O)[C@@H](O)[C@H]5O)[C@@H](O)[C@H](O)[C@H]4O)cc3O2)cc1O` [Hesperidin], the “AK-based Prestwick Library Screening Results, K. pneumoniae (fold increase in extracellular AK activity)” value in the assay on K. pneumoniae (planktonic, […]) is given as 1.0. Also, the “AK-based Prestwick Library Screening Results, E. coli (fold increase in extracellular AK activity)” value in the assay with E. coli (planktonic, […]) worked out at 1.1. Besides, the “AK-based Prestwick Library Screening Results, A. baumannii (fold increase in extracellular AK activity)” value in assay [1] (planktonic, […]) was found to be 1.2. Also, in the assay with E. faecium (planktonic, […]), the “AK-based Prestwick Library Screening Results, E. faecium (fold increase in extracellular AK activity)” value is 1.1. In assay [2] (planktonic, […]), the “AK-based Prestwick Library Screening Results, S. aureus (fold increase in extracellular AK activity)” value was 1.3. The “AK-based Prestwick Library Screening Results, P. aeruginosa (fold increase in extracellular AK activity)” value with P. aeruginosa (planktonic, […]) worked out at 1.0. Moreover, the “AK-based Prestwick Library Screening Results, E. cloacae (fold increase in extracellular AK activity)” value with E. cloacae (planktonic, […]) is given as 1.4.
